The target of experiment [1] is human GLP-1R (Homo sapiens, UniProt P43220, G168S). Nature of the experiment: CHO GLP-1R Clone H6—Assay 1: HTRF cAMP cell-based functional agonist assay (high GLP-1R density). Conditions: for EC50: read-out: Assay 1 EC50, CHO GLP-1R Clone H6, cAMP HTRF, geometric mean; for Emax: read-out: Assay 1 Emax (%), CHO GLP-1R Clone H6, relative to saturating concentration of full agonist GLP-1 (1 μM), arithmetic mean.

Experiment [2] addresses human GLP-1R (Homo sapiens (Human), UniProt P43220, L260F). Nature of the experiment: CHO GLP-1R Clone C6—Assay 2: HTRF cAMP cell-based functional agonist assay (low GLP-1R density). The note with it: for EC50: CHO GLP-1R Clone C6, cAMP HTRF, geometric mean; for Emax: CHO GLP-1R Clone C6, relative to saturating concentration of full agonist GLP-1 (1 μM), arithmetic mean, read-out: Assay 2 Emax (%).
Description: GLP-1R-mediated agonist activity was determined with a cell-based functional assay utilizing an HTRF (Homogeneous Time-Resolved Fluorescence) cAMP detection kit (cAMP HI Range Assay Kit; Cis Bio cat #62AM6PEJ) that measures cAMP levels in the cell. The method is a competitive immunoassay between native cAMP produced by the cells and exogenous cAMP labeled with the dye d2. The tracer binding is visualized by a mAb anti-cAMP labeled with Cryptate. The specific signal (i.e. energy transfer) is inversely proportional to the concentration of cAMP in either a standard or an experimental sample.
The human GLP-1R coding sequence (NCBI Reference Sequence NP_002053.3, including naturally-occurring variant Leu260Phe) was subcloned into pcDNA5-FRT-TO and a clonal CHO cell line stably expressing a low receptor density was isolated using the Flp-In™ T-Rex™ System, as described by the manufacturer (ThermoFisher).
Cells were removed from cryopreservation, re-suspended in 40 mL of Dulbecco's Phosphate Buffered Saline (DPBS-Lonza Cat #17-512Q) and centrifuged at 800×g for 5 min at 22° C. The DPBS was aspirated, and the cell pellet was re-suspended in 10 mL of complete growth medium (DMEM:F12 1:1 Mixture with HEPES, L-Gln, 500 mL (DMEM/F12 Lonza Cat #12-719F), 10% heat inactivated fetal bovine serum (Gibco Cat #16140-071), 5 mL of 100× Pen-Strep (Gibco Cat #15140-122), 5 mL of 100× L-Glutamine (Gibco Cat #25030-081), 700 μg/mL Hygromycin (Invitrogen Cat #10687010) and 15 μg/mL Blasticidin (Gibco Cat #R21001). A 1 mL sample of the cell suspension in growth media was counted on a Becton Dickinson ViCell to determine cell viability and cell count per mL. The remaining cell suspension was then adjusted with growth media to deliver 1600 viable cells per well using a Matrix Combi Multidrop reagent dispenser, and the cells were dispensed into a white 384 well tissue culture treated assay plate (Corning 3570). The assay plate was then incubated for 48 h at 37° C. in a humidified environment (95% O2, 5% CO2)
Varying concentrations of each compound to be tested (in DMSO) were diluted in assay buffer [HBSS with Calcium/Magnesium (Lonza/BioWhittaker cat #10-527F)/0.1% BSA (Sigma Aldrich cat #A7409-1L)/20 mM HEPES (Lonza/BioWhittaker cat #17-737E)] containing 100 μM 3-isobutyl-1-methylxanthin (IBMX; Sigma cat #15879). The final DMSO concentration in the compound/assay buffer mixture is 1%.
After 48 h, the growth media was removed from the assay plate wells, and the cells were treated with 20 μL of the serially diluted compound in assay buffer for 30 min at 37° C. in a humidified environment (95% O2, 5% CO2). Following the 30 min incubation, 10 μL of labeled d2 cAMP and 10 μL of anti-cAMP antibody (both diluted 1:20 in cell lysis buffer; as described in the manufacturer's assay protocol) were added to each well of the assay plate. The plates were then incubated at room temperature and after 60 minutes, changes in the HTRF signal were read with an Envision 2104 multi-label plate reader using excitation of 330 nm and emissions of 615 and 665 nm. Raw data were converted to nM cAMP by interpolation from a cAMP standard curve (as described in the manufacturer's assay protocol) and the percent effect was determined relative to a saturating concentration of the full agonist GLP-1 (1 μM) included on each plate. EC50 determinations were made from agonist dose response curves analyzed with a curve fitting program using a 4-parameter logistic dose response equation.

Chain of human GLP-1R (Homo sapiens (Human), UniProt P43220, L260F) (P43220 24-463 L260F): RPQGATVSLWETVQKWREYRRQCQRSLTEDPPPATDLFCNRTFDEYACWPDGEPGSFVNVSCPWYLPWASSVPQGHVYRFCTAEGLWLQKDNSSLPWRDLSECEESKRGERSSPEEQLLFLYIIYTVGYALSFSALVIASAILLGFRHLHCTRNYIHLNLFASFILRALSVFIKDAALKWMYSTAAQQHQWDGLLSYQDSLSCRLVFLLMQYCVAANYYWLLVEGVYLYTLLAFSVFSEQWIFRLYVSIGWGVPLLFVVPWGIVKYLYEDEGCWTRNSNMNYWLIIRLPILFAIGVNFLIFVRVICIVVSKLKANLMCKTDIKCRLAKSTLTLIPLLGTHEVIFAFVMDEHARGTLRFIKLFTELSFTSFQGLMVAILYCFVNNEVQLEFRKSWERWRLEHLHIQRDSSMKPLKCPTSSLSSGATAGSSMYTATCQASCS
Chain of human GLP-1R (Homo sapiens, UniProt P43220, G168S) (P43220 24-463 G168S limits assumed): as the sequence (P43220 24-463 L260F) above, with G145S, F237L counted along it

Regarding `O=C(O)c1ccc2nc(CN3CCN(c4cccc(OCc5ccc(Cl)cc5F)n4)CC3)n(C[C@H]3CCO3)c2c1` [Example 10A-48], in experiment [1], the EC50 came to 8.6 nM and the maximal response (Emax) was 64%. In experiment [2], a half-maximal effect (EC50) was put at 140 nM and the Emax was found to be 76%.

As to `N#Cc1ccc(COc2nc(C3CCN(Cc4nc5ccc(C(=O)O)cc5n4C[C@@H]4CCO4)CC3)ccc2F)c(F)c1` [Example 10A-54, 2-[(4-{6-[(4-cyano-2-fluorobenzyl)oxy]-5-fluoropyridin-2-yl}piperidin-1-yl)methyl]-1-[(2S)-oxetan-2-ylmethyl]-1H-benzimidazole-6-carboxylic acid], in experiment [1], the EC50 is 0.71 nM and the Emax amounted to 81%. In experiment [2], the concentration giving a half-maximal response (EC50) was found to be 11 nM and the Emax is 100%.

Turning to `N#Cc1ccc(COc2nc(C3CCN(Cc4nc5ccc(C(=O)O)cc5n4C[C@@H]4CCO4)CC3)ccc2F)cc1` [Example 10A-55, 2-[(4-{6-[(4-cyanobenzyl)oxy]-5-fluoropyridin-2-yl}piperidin-1-yl)methyl]-1-[(2S)-oxetan-2-ylmethyl]-1H-benzimidazole-6-carboxylic acid], the concentration giving a half-maximal response (EC50) in experiment [1] was 1.2 nM; in experiment [2], 24 nM. For the same compound, the Emax in experiment [1] amounted to 84%; in experiment [2], 98%.

Consider `C[C@H]1CN(c2ccc(F)c(OCc3ccc(F)cc3F)n2)CCN1Cc1nc2ccc(C(=O)O)cc2n1C[C@@H]1CCO1` [Example 10A-56, 2-{[(2S)-4-{6-[(2,4-difluorobenzyl)oxy]-5-fluoropyridin-2-yl}-2-methylpiperazin-1-yl]methyl}-1-[(2S)-oxetan-2-ylmethyl]-1H-benzimidazole-6-carboxylic acid], for which the EC50 in experiment [1] was 0.5 nM; in experiment [2], 16 nM. The maximum response (Emax) was 78% in experiment [1] and 86% in experiment [2].

Take `C[C@H]1CN(c2ccc(F)c(OCc3ccc(F)cc3F)n2)CCN1Cc1nc2ccc(C(=O)O)cc2n1C[C@H]1CCO1` [Example 10A-57]: in experiment [1], the 50% effective concentration (EC50) worked out at 9.4 nM and the Emax was determined as 69%. Further, in experiment [2], the half-maximal effective concentration (EC50) came to 160 nM and the Emax worked out at 71%.

`C[C@H]1CN(c2cccc(OCc3ccc(F)cc3F)n2)CCN1Cc1nc2ccc(C(=O)O)cc2n1C[C@@H]1CCO1` [Example 10A-58, 2-{[(2S)-4-{6-[(2,4-difluorobenzyl)oxy]pyridin-2-yl}-2-methylpiperazin-1-yl]methyl}-1-[(2S)-oxetan-2-ylmethyl]-1H-benzimidazole-6-carboxylic acid]: in experiment [1], the concentration giving a half-maximal response (EC50) is 0.52 nM and the Emax is 70%. Besides, in experiment [2], the EC50 worked out at 8.5 nM and the Emax is 78%.

As for `C[C@H]1CN(c2cccc(OCc3ccc(C#N)cc3F)n2)CCN1Cc1nc2ccc(C(=O)O)cc2n1C[C@H]1CCOC1` [Example 10A-59], in experiment [1], the concentration for a half-maximal effect (EC50) was 4.7 nM and the Emax is 71%. Besides, in experiment [2], a half-maximal effect (EC50) was put at 84 nM and the Emax came out at 83%.

Turning to `O=C(O)c1ccc2nc(CN3CCC(c4cccc(OCc5ccc(Cl)cc5F)n4)CC3)n([C@@H]3CCOC3)c2c1` [Example 10A-60], in experiment [1], the EC50 amounted to 31 nM and the Emax worked out at 81%. Also, in experiment [2], the EC50 was found to be 460 nM and the Emax amounted to 66%.

Consider `N#Cc1ccc(COc2cccc(N3CCN(Cc4nc5ccc(C(=O)O)cc5n4Cc4cnco4)CC3)n2)c(F)c1` [Example 10A-61, 2-[(4-{6-[(4-cyano-2-fluorobenzyl)oxy]pyridin-2-yl}piperazin-1-yl)methyl]-1-(1,3-oxazol-5-ylmethyl)-1H-benzimidazole-6-carboxylic acid], for which, in experiment [1], the 50% effective concentration (EC50) is 1.5 nM and the Emax came to 74%. In addition, in experiment [2], the response was half-maximal at 35 nM (EC50) and the Emax was determined as 89%.

As for `CCn1nncc1Cn1c(CN2CCN(c3cccc(OCc4ccc(C#N)cc4F)n3)CC2)nc2ccc(C(=O)O)cc21` [Example 10A-62, 2-[(4-{6-[(4-cyano-2-fluorobenzyl)oxy]pyridin-2-yl}piperazin-1-yl)methyl]-1-[(1-ethyl-1H-1,2,3-triazol-5-yl)methyl]-1H-benzimidazole-6-carboxylic acid], in experiment [1], the concentration giving a half-maximal response (EC50) was determined as 2.9 nM and the maximal effect (Emax) is 96%. Besides, in experiment [2], the midpoint of the response, the EC50, lay at 28 nM and the maximal response (Emax) came to 97%.

With `CCn1cncc1Cn1c(CN2CCN(c3cccc(OCc4ccc(C#N)cc4F)n3)C[C@@H]2C)nc2ccc(C(=O)O)cc21` [Example 10A-63], in experiment [1], the concentration for a half-maximal effect (EC50) amounted to 0.58 nM and the Emax was 86%. For the same compound, in experiment [2], the response was half-maximal at 11 nM (EC50) and the maximal response (Emax) stood at 110%.

As to `O=C(O)c1ccc2nc(CN3CCC(c4cccc(OCc5ccc(Cl)cc5F)n4)CC3)n(Cc3ccno3)c2c1` [Example 10A-64, 2-[(4-{6-[(4-chloro-2-fluorobenzyl)oxy]pyridin-2-yl}piperidin-1-yl)methyl]-1-(1,2-oxazol-5-ylmethyl)-1H-benzimidazole-6-carboxylic acid], in experiment [1], the concentration giving a half-maximal response (EC50) came out at 2 nM and the maximal effect (Emax) came to 82%. Further, in experiment [2], the EC50 came out at 32 nM and the maximum response (Emax) is 79%.

In the case of `N#Cc1ccc(COc2cccc(C3CCN(Cc4nc5ccc(C(=O)O)cc5n4Cc4ccon4)CC3)n2)c(F)c1` [Example 10A-65, 2-[(4-{6-[(4-cyano-2-fluorobenzyl)oxy]pyridin-2-yl}piperidin-1-yl)methyl]-1-(1,2-oxazol-3-ylmethyl)-1H-benzimidazole-6-carboxylic acid], in experiment [1], the EC50 was 1.6 nM and the maximum response (Emax) stood at 84%. In addition, in experiment [2], the EC50 came to 35 nM and the Emax was 78%.

`CCn1cncc1Cn1c(CN2CCC(c3cccc(OCc4ccc(C#N)cc4F)n3)CC2)nc2ccc(C(=O)O)cc21` [Example 10A-66, 2-[(4-{6-[(4-cyano-2-fluorobenzyl)oxy]pyridin-2-yl}piperidin-1-yl)methyl]-1-[(1-ethyl-1H-imidazol-5-yl)methyl]-1H-benzimidazole-6-carboxylic acid]: in experiment [1], the concentration giving a half-maximal response (EC50) is 0.39 nM and the maximal response (Emax) was determined as 84%. Besides, in experiment [2], the EC50 was determined as 3.4 nM and the Emax was 100%.

Consider `CCn1cncc1Cn1c(CN2CCN(c3cccc(OCc4ccc(Cl)cc4F)n3)C[C@@H]2C)nc2ccc(C(=O)O)cc21` [Example 10A-67, 2-{[(2S)-4-{6-[(4-chloro-2-fluorobenzyl)oxy]pyridin-2-yl}-2-methylpiperazin-1-yl]methyl}-1-[(1-ethyl-1H-imidazol-5-yl)methyl]-1H-benzimidazole-6-carboxylic acid], for which, in experiment [1], the concentration giving a half-maximal response (EC50) came to 0.59 nM and the Emax is 83%. For the same compound, in experiment [2], the midpoint of the response, the EC50, lay at 6.8 nM and the maximum response (Emax) turned out to be 93%.

Consider `CCn1nncc1Cn1c(CN2CCC(c3cccc(OCc4ccc(C#N)cc4F)n3)CC2)nc2ccc(C(=O)O)cc21` [Example 10A-69, 2-[(4-{6-[(4-cyano-2-fluorobenzyl)oxy]pyridin-2-yl}piperidin-1-yl)methyl]-1-[(1-ethyl-1H-1,2,3-triazol-5-yl)methyl]-1H-benzimidazole-6-carboxylic acid], for which, in experiment [1], the EC50 came out at 2 nM and the Emax amounted to 84%. Besides, in experiment [2], the 50% effective concentration (EC50) was 20 nM and the maximal response (Emax) was determined as 87%.

Take `O=C(O)c1ccc2nc(CN3CCC(c4cccc(OCc5ccc(Cl)cc5F)n4)CC3)n([C@H]3CCOC3)c2c1` [Example 10A-71]: in experiment [1], the EC50 is 190 nM and the Emax worked out at 62%. Further, in experiment [2], the EC50 was 5800 nM and the maximum response (Emax) was 85%.

`O=C(O)c1ccc2nc(CN3CCC(c4cccc(OCc5ccc(Cl)cc5F)n4)CC3)n(C[C@@H]3CCCO3)c2c1` [Example 10A-73, 2-[(4-{6-[(4-chloro-2-fluorobenzyl)oxy]pyridin-2-yl}piperidin-1-yl)methyl]-1-[(2S)-tetrahydrofuran-2-ylmethyl]-1H-benzimidazole-6-carboxylic acid]: in experiment [1], the half-maximal effective concentration (EC50) is 8.6 nM and the maximal response (Emax) was 78%. Further, in experiment [2], a half-maximal effect (EC50) was put at 88 nM and the maximum response (Emax) worked out at 82%.

As for `O=C(O)c1ccc2nc(CN3CCN(c4cccc(OCc5ccc(Cl)cc5F)n4)CC3)n(C[C@@H]3CCO3)c2n1` [Example 10A-74, 2-[(4-{6-[(4-chloro-2-fluorobenzyl)oxy]pyridin-2-yl}piperazin-1-yl)methyl]-3-[(2S)-oxetan-2-ylmethyl]-3H-imidazo[4,5-b]pyridine-5-carboxylic acid], in experiment [1], the EC50 is 0.9 nM and the maximum response (Emax) amounted to 94%. Besides, in experiment [2], the midpoint of the response, the EC50, lay at 9.7 nM and the maximal effect (Emax) is 100%.

In the case of `CCn1cncc1Cn1c(CN2CCC(c3cccc(OCc4ccc(C#N)cc4F)n3)CC2)nc2ccc(C(=O)O)nc21` [Example 10A-75], in experiment [1], the EC50 came to 0.95 nM and the Emax came to 95%. In experiment [2], the concentration for a half-maximal effect (EC50) stood at 13 nM and the Emax turned out to be 91%.

Regarding `Cn1cncc1Cn1c(CN2CCC(c3cccc(OCc4ccc(C#N)cc4F)n3)CC2)nc2ccc(C(=O)O)nc21` [Example 10A-76], the 50% effective concentration (EC50) in experiment [1] is 2.9 nM; in experiment [2], 51 nM. In addition, the Emax in experiment [1] amounted to 79%; in experiment [2], 95%.

`N#Cc1ccc(COc2cccc(N3CCN(Cc4nc5ccc(C(=O)O)nc5n4C[C@@H]4CCO4)CC3)n2)c(F)c1` [Example 10A-77, 2-[(4-{6-[(4-cyano-2-fluorobenzyl)oxy]pyridin-2-yl}piperazin-1-yl)methyl]-3-[(2S)-oxetan-2-ylmethyl]-3H-imidazo[4,5-b]pyridine-5-carboxylic acid]: in experiment [1], the 50% effective concentration (EC50) worked out at 0.96 nM and the Emax stood at 100%. Besides, in experiment [2], the 50% effective concentration (EC50) was determined as 10 nM and the maximal effect (Emax) amounted to 120%.
